Results published in ChEMBL document CHEMBL5465560, “Selectivity Literature for EUbOPEN Chemogenomic Library” (2024).

Tests used:
[1] = target: Cyclin-dependent kinase 15 (Homo sapiens) (UniProt Q96Q40); assay: Selectivity interaction (KinomeScan (DiscoverX)) EUB0000695a CDK15; conditions: at 100 nM
[2] = tested on: Mast/stem cell growth factor receptor Kit (Homo sapiens), P10721 [L576P]; assay: (§1) Selectivity interaction (KinomeScan (DiscoverX)) EUB0001079a KIT; conditions: at 1 µM
[3] = tested on: Mast/stem cell growth factor receptor Kit (Homo sapiens), P10721 [A829P]; assay: as §1; conditions: at 1 µM
Chain of Mast/stem cell growth factor receptor Kit (Homo sapiens), P10721 [A829P] (P10721 whole entry A829P): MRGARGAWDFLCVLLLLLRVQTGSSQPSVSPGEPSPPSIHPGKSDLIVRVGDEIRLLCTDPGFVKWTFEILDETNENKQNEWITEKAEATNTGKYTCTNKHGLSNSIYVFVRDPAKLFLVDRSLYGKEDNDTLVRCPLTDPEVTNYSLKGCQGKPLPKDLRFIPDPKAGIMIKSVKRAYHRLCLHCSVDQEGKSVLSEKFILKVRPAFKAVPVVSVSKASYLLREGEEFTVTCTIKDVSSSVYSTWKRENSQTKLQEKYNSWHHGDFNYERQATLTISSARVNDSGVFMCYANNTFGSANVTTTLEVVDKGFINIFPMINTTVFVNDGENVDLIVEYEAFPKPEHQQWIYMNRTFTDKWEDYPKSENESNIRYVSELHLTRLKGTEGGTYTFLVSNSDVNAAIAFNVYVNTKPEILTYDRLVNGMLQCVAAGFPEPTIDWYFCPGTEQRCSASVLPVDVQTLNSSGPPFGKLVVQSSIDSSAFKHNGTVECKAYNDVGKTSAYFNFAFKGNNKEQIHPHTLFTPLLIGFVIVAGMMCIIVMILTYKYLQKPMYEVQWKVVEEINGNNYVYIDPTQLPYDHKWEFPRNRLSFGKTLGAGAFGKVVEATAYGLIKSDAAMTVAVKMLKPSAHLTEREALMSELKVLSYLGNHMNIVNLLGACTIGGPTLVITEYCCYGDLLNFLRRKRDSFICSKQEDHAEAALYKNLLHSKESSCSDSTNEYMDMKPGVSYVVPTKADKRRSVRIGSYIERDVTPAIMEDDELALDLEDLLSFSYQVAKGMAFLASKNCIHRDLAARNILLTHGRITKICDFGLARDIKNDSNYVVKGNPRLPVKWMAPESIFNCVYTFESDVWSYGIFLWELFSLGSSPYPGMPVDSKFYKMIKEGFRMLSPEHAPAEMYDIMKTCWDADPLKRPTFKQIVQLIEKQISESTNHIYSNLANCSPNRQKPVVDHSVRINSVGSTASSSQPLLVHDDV

[4] = tested on: Mast/stem cell growth factor receptor Kit (Homo sapiens), P10721 [D816H]; assay: as §1; conditions: at 1 µM
Chain of Mast/stem cell growth factor receptor Kit (Homo sapiens), P10721 [D816H] (P10721 whole entry D816H): as the sequence (P10721 whole entry A829P) above, with D816H, P829A counted along it

[5] = tested on: Mast/stem cell growth factor receptor Kit (Homo sapiens), P10721 [V559D,V654A]; assay: as §1; conditions: at 1 µM
Chain of Mast/stem cell growth factor receptor Kit (Homo sapiens), P10721 [V559D,V654A] (P10721 whole entry V559D/V654A): as the sequence (P10721 whole entry A829P) above, with V559D, V654A, P829A counted along it

[6] = tested on: Mast/stem cell growth factor receptor Kit (Homo sapiens), P10721 [D816V]; assay: as §1; conditions: at 1 µM
Chain of Mast/stem cell growth factor receptor Kit (Homo sapiens), P10721 [D816V] (P10721 whole entry D816V): as the sequence (P10721 whole entry A829P) above, with D816V, P829A counted along it

[7] = target: Mast/stem cell growth factor receptor Kit (Homo sapiens, UniProt P10721); assay: as §1; conditions: at 1 µM
Chain of Mast/stem cell growth factor receptor Kit (P10721 whole entry): as the sequence (P10721 whole entry A829P) above, with P829A counted along it

[8] = tested on: Mast/stem cell growth factor receptor Kit (Homo sapiens), P10721 [V559D]; assay: as §1; conditions: at 1 µM
Chain of Mast/stem cell growth factor receptor Kit (Homo sapiens), P10721 [V559D] (P10721 whole entry V559D): as the sequence (P10721 whole entry A829P) above, with V559D, P829A counted along it

[9] = tested on: Mast/stem cell growth factor receptor Kit (Homo sapiens), P10721 [V559D,T670I]; assay: as §1; conditions: at 1 µM
Chain of Mast/stem cell growth factor receptor Kit (Homo sapiens), P10721 [V559D,T670I] (P10721 whole entry V559D/T670I): as the sequence (P10721 whole entry A829P) above, with V559D, T670I, P829A counted along it

[10] = target: MAP kinase-interacting serine/threonine-protein kinase 2 (Homo sapiens, UniProt Q9HBH9); conditions: at 10 µM
Chain of MAP kinase-interacting serine/threonine-protein kinase 2 (Q9HBH9 whole entry, looked up): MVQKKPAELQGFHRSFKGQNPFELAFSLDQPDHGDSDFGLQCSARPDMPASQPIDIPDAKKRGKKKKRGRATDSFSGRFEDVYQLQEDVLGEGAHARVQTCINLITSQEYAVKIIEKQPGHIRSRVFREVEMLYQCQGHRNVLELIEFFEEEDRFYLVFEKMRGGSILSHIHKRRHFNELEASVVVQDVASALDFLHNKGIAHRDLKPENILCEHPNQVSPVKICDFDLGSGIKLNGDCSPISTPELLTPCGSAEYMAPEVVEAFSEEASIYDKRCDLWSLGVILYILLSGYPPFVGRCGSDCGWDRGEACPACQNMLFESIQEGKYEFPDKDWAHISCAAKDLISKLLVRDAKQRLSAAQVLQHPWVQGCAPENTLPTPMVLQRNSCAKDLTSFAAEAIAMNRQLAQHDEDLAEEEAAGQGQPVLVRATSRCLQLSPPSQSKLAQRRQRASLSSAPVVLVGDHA

[11] = target: T1, Cyclin-dependent kinase 11A (Homo sapiens) (UniProt Q9UQ88); assay: Selectivity interaction (KinomeScan (DiscoverX)) EUB0001619a CDK11A; conditions: at 1 µM
T1 sequence (whole entry): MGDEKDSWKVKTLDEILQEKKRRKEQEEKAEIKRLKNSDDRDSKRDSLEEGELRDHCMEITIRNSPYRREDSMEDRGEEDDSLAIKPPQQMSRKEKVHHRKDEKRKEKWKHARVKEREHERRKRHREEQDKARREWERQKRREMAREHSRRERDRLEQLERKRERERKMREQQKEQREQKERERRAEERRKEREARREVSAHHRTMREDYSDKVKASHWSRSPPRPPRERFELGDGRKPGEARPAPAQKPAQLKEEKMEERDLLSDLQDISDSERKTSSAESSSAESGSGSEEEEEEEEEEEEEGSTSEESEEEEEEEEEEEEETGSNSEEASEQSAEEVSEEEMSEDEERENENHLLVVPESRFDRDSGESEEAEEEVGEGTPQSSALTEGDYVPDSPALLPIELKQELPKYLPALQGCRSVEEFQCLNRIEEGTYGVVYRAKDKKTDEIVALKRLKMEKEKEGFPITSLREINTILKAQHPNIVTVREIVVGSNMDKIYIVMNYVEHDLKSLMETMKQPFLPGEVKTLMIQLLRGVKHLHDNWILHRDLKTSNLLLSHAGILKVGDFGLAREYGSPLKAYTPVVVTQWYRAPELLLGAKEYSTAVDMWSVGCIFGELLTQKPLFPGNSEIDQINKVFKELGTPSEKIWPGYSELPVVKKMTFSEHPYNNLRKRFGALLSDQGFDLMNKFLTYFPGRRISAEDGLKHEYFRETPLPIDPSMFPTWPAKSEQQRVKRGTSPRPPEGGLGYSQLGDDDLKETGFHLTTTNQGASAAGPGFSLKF

[12] = target: Serine/threonine-protein kinase PRP4 homolog (Homo sapiens) (UniProt Q13523); assay: Selectivity interaction (ActivX KiNativ screen (kinase selectivity in THP-1 cell lysates)) EUB0000639a PRPF4; format: subcellular; conditions: lysate
Chain of Serine/threonine-protein kinase PRP4 homolog (Homo sapiens) (Q13523 whole entry): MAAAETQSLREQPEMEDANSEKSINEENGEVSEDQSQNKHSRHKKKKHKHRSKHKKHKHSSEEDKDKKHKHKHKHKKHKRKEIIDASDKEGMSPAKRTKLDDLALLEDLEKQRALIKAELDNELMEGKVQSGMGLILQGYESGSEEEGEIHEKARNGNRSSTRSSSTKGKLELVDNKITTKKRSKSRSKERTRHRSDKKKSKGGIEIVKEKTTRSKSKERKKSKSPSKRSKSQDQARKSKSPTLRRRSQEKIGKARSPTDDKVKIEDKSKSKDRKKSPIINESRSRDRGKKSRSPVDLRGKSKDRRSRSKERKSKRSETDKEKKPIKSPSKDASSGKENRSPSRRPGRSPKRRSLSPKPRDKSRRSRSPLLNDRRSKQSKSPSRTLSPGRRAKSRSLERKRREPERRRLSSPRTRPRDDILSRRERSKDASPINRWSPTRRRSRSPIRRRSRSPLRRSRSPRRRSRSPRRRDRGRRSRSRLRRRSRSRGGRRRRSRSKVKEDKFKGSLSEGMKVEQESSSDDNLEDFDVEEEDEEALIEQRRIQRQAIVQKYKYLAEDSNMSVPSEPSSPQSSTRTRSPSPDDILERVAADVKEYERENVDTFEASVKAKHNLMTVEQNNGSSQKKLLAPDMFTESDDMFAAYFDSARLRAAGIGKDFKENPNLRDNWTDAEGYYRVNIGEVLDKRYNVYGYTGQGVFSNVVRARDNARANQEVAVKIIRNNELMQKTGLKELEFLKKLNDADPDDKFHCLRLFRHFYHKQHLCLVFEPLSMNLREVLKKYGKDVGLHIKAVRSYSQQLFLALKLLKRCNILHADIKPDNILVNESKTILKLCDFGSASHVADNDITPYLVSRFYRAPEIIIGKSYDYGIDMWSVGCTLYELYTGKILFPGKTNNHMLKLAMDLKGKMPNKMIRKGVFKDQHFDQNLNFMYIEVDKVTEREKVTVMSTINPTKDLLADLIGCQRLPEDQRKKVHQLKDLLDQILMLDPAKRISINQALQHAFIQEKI

[13] = target: T2, Serine/threonine-protein kinase D3 (Homo sapiens) (UniProt O94806); assay: Selectivity interaction (Ambit KINOMEscan and KiNATiv profiling in Jurkat cells) EUB0000090b PRKD3; format: cell-based; conditions: at 1 µM
T2 sequence (whole entry): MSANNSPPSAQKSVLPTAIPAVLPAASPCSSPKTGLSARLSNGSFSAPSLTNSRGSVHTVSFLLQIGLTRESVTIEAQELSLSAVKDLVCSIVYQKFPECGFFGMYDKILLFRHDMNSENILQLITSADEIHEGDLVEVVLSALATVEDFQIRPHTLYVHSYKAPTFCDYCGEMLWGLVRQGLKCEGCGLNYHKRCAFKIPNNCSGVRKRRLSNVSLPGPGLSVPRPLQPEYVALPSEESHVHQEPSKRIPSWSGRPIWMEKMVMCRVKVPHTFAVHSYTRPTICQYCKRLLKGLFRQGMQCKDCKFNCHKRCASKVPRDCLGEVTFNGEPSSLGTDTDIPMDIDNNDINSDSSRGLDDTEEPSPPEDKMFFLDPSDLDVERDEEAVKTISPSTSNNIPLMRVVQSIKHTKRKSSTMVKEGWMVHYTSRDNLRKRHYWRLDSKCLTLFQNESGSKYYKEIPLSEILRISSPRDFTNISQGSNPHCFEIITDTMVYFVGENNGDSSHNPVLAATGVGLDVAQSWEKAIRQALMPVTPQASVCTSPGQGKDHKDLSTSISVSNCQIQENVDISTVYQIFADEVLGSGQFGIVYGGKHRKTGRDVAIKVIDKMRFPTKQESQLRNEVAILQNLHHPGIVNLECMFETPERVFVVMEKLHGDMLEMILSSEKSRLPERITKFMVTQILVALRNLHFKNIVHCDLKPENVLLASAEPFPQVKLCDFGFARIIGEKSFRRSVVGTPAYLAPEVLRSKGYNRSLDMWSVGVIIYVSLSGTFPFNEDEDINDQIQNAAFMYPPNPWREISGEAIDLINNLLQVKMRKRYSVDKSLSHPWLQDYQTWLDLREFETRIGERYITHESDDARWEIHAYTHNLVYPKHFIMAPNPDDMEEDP

Chain of Mast/stem cell growth factor receptor Kit (Homo sapiens), P10721 [L576P] (P10721 whole entry L576P): as the sequence (P10721 whole entry A829P) above, with L576P, P829A counted along it
Chain of Cyclin-dependent kinase 15 (Homo sapiens) (Q96Q40 whole entry): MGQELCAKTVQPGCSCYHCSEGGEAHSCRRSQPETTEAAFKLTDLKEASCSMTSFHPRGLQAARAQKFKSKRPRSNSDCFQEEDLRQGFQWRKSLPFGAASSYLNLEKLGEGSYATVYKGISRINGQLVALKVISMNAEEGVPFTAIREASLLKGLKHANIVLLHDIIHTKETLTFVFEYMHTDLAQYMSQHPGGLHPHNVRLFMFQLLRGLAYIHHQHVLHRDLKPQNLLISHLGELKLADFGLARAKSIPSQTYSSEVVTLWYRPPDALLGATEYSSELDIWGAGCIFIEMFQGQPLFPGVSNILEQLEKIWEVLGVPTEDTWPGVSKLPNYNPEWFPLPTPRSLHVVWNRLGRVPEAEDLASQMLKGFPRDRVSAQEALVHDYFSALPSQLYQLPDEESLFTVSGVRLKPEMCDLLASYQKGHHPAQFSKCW

SMILES: Cc1cc(F)c(C(=O)Nc2cccc(-c3nncn3C(C)C)n2)cc1-n1cnc(C2CC2)c1
- % of control [1]: 100%

SMILES: Nc1cnc(N2CCc3cc(S(=O)(=O)Nc4c(F)cc(Cl)cc4F)cc(N4CCCC4=O)c32)nc1 [TP-020n]
- % of control [2]: 83%
- % of control [3]: 100%
- % of control [4]: 100%
- % of control [5]: 100%
- % of control [6]: 100%
- % of control [7]: 100%
- % of control [8]: 100%
- % of control [9]: 100%

SMILES: Cc1cc([C@@H](C)Nc2ccccc2C(=O)O)c2nc(N3CCOCC3)cc(=O)n2c1 [AZD-6482]
- % of control [10]: 92%

SMILES: N#Cc1cccc(-c2c[nH]c3ncnc(N4CCOCC4)c23)c1
- % of control [11]: 48%

SMILES: CC[C@@H]1[C@H](F)C(=O)N[C@@H]1COc1nccc2cc(C(N)=O)c(OC)cc12 [ZIMLOVISERTIB]
- % of inhibition ([12]; at 0.01 µM): -2.3%
- % of inhibition ([12]; at 0.04 µM): 7.1%
- % of inhibition ([12]; at 0.2 µM): 29.8%
- % of inhibition ([12]; at 1 µM): 73.9%
- % of inhibition ([12]; at 5 µM): 86.3%

SMILES: CN(C)C/C=C/C(=O)Nc1ccc(C(=O)N2CCCC(Nc3ncc(Cl)c(-c4c[nH]c5ccccc45)n3)C2)cc1 (configuration not stated)
- % of control [13]: 33%
